The values below come from patent publication US20060014727A1, “Angiogenic compounds and uses thereof” (priority 2002, published 2006).

The test system of assay [1] is Human umbilical vein endothelial cells (HUVEC). In words: Endothelial sprouting assay. The class given is cell-based. The following applies: HUVEC-coated beads in fibrin gels, 3 days, 0.625 μg/ml to 5 μg/ml, FIG. 1, averages from seven independent experiments. As to the method:
Human umbilical vein endothelial cells (HUVEC) from normal umbilical cords were obtained by collagenase treatment. Cultures were propagated in MCDB medium supplemented with 15% FCS, heparin, and endothelial cell growth supplement. Endothelial sprouting was assessed by a modification of the method of Nehls and Drenckhahn ^14. Briefly, microcarrier beads coated with gelatin (Cytodex 3, Sigma) were seeded with HUVEC. When the cells reached confluence on the beads, equal numbers of […] beads were embedded in fibrin gels in 96-well plates. For preparation of fibrin gels, bovine fibrinogen was dissolved in MCDB at a concentration of 2.5 mg/ml. Aprotinin was added at a concentration of 0.05 mg/ml and the solution filtered through a 0.22 micron filter. Fibrinogen solution was supplemented with FGF-2 or sokotrasterol sulphate. As a control, fibrinogen solution without angiogenic factor was used. Following transfer of the fibrinogen solution to 96-well plates, HUVEC-coated beads were added at a density of 50 beads/well, and clotting was induced by the addition of thrombin (1.2 U/ml). […] After 3 days of incubation with daily medium changes, the number of capillary-like tubes formed was quantitated by counting the number of tube-like structures per microcarrier bead (sprouts/bead). Only sprouts greater than 150 μm in length and composed of at least 3 endothelial cells were counted. […]

The test system of assay [2] is chick chorioallantoic membrane (CAM). In words: Chick chorioallantoic membrane (CAM) assay. The following applies: 20, 40 and 60 μg/ml, 20 μl on gelatin sponge, day 8 to day 10. The class given is in vivo, Gallus gallus domesticus. The protocol:
Fertilized White Leghorn chicken eggs (Gallus gallus domesticus) were incubated at 37° C. under conditions of constant humidity. All chick eggs were handled according to institutional animal care procedures. On embryonic day 6, the developing chick chorioallantoic membrane (CAM) was separated from the shell by opening a small circular window at the broad end of the egg above the air sac. The embryos were checked for normal development, the window sealed with Parafilm, and the eggs returned to the incubator for 2 more days. On day 8, CAMs were treated with FGF-2 (30 ng/ml), sokotrasterol sulphate (20, 40 and 60 μg/ml) or PBS by loading 20 μl onto 2-mm^3 gelatin sponges (Gelfoam; Pharmacia Upjohn), which were then placed on the surface of the developing CAM. Eggs were resealed and returned to the incubator. On day 10, images of the CAMs were captured digitally using an Olympus SZX9 stereomicroscope (Olympus America) equipped with a Spot RT digital imaging system (Diagnostic Instruments). Neovascularization was quantitated for each CAM by counting the number of vessels that entered the sponge area, and dividing by the perimeter of the sponge (vessels/mm). Northern Eclipse version 6.0 (Empix Imaging Inc.) was used for manual vessel counting and mesh perimeter measurements.

Where [3] appears, read: listed as Sokotrasterol sulphate.

For sokotrasterol sulphate, the figures for the “endothelial sprouting (number of tube-like structures per microcarrier bead, sprouts/bead)” value in assay [1] and in assay [1] (setting [3]) were “promoted endothelial sprouting in vitro in a concentration-dependent manner” and “promotes endothelial sprouting in vitro”, respectively. The “neovascularization: number of vessels entering the gelatin sponge per mm of perimeter (vessels/mm)” value in assay [2] is “positive concentration-dependent effect”; in assay [2] (setting [3]), “promotes angiogenesis”.
